“Also recorded” adds a separate entry of the source.
Tested on: cloned T cells (68A62)
Test: Ca2+ mobilization pattern in individual T cells of a T-cell monolayer (Fluo-4 fluorescence microscopy)
Type: cell-based, human
Conditions: for fraction of T cells with slower Ca2+ mobilization (pattern of inefficient T cells) / fraction of cells with rapid/strong and sustained pattern of Ca2+ flux: CTL clone 68A62, strong agonist peptide 10^-4 M IV9, FIG. 4
Source text: HIV- and Flu-specific human CD8+ T cell clones, termed 68A62 and CER43, were kindly provide by Bruce Walker and Antonio Lanzavecchia, correspondingly. These T cells recognize […] (IV9) and […] (GL9) peptides, respectively, both presented by HLA-A2 MHC class I. 115iX is a CD8+ T cell line developed from CTL D3 as a result of spontaneous mutation in its TCR β chain resulting in loss of specificity for its natural ligand (Anikeeva and Sykulev, unpublished). These were used as T cells with irrelevant specificity. After stimulation with a mixture of allogeneic PBMC and IL2 the cells are typically used in resting stage, 12-17 days after the stimulation as previously described.
10^6 cells in 1 ml of PBS were loaded with Fluo-4 (Life Technologies) at 2-4 μM for 30 min at 37° C. in the presence of 0.02% pluoronic acid F-127 and 4 mM Probenecid. The cells were washed free of unreacted reagents and incubated at 37° C. for additional 30 min. The cells were then re-suspended in the assay buffer (Dulbecco's PBS containing 1 mM CaCl2, 2 mM MgCl2, 5 mM glucose, and 0.025% BSA) and used for Ca2+ flux analysis.
Glass bottom of 96 well MatTec plates was covered with poly-L-Lysine (Sigma, mol wt>300,000) at 0.1 mg/ml for 1 hr at room temperature. After washing with DPBS and add water, TS2/4 non-blocking mAb specific for LFA-1 were added to the plate at concentration 10 μg/ml overnight & 4° C. The wells were washed with DPBS, and 3×10^5 Fluo-4-labeled T cells in 100 μl of the assay buffer were added to each well. The plates were centrifuged for 200 g for one minute and were incubated for 30 min at room temperature prior to the imaging. Suspended cells were removed by gentle washing with assay buffer. The quality of T cell monolayer was assessed using bright field microscopy.
To identify responding T cells we imaged T-cell monolayers before (background measurement) and after (response) addition of the stimulatory signal such as agonist peptide. The images of T-cell monolayers were taken at various exposure times using 10× or 20× objectives. Instead of averaging the entire set of stimulatory signal against an agonist peptide, we identified sets of cells, having different response rates and then averaged these, now separated sets of cells. This is in direct contrast to the general averaging strategy provided in PCT/US2016/039313. In some experiments Ca2+ response was also initiated by ionomycin at 10 μg/ml to optimize exposure time (data not shown). The average intensity of images prior and after the T-cell stimulation at various time points and the numbers of individual responding cells per imaging field were determined by MetaMorph software.
Glass bottom of 96-well plates was covered with poly-L-Lysine to capture TS2/4 antibody recognizing LFA-1 adhesion receptor without blocking LFA-1 functional activity. Cloned CD8 T cells with known specificity or polyclonal CD8 T cells were labeled with Ca2+ fluorophore Fluor-4 and added to the wells. The quality of the T-cell monolayers was evident from analysis of bright field images of the immobilized T cells on the glass bottom of the plate. This method allows T cells to form a continuous monolayer allowing the T cells to contact each other, which is necessary for presentation and recognition of pMHC on one T cell by another T cell.
The immobilized cells, after they are provided with stimulation of a peptide, can be imaged. Accordingly, we can take a first image, to identify the background image of each individual cell, before and after the stimulation. Accordingly, we can look at the calcium concentration of each individual cell across time. By looking at each cell, we can then determine and add them to one of three boxes for responding cells, and then a fourth type of cell that is either non-responsive or there is calcium flux that happens with or without stimulation-this typically results in a sharp peak of intensity that quickly diminishes.

[1] = listed as strong agonist ligand

Question: For “ILKEPVHGV [IV9, peptide from HIV reverse transcriptase, presented by HLA-A2, recognized by CTL clone 68A62]”, which “pattern of Ca2+ response of majority of T cells” value (from here on “pattern … of majority of T cells”) (CD8 CTL 68A62, 10^-4 M IV9 peptide, FIG. 4) is on record?
Answer: The value was “rapid and sustaine”.

Question: And the “fraction of T cells with slower Ca2+ mobilization (pattern of inefficient T cells)” value?
Answer: Its value is 20%.

Question: What about the “fraction of cells with rapid/strong and sustained pattern of Ca2+ flux” value of the same sequence?
Answer: Its value is “about 90%”.

Question: And the “fraction of T cells with slower Ca2+ mobilization (pattern of inefficient T cells)” value [1]?
Answer: The value was “less than 20%”.

Question: And the “fraction of cells with rapid/strong and sustained pattern of Ca2+ flux” value [1]?
Answer: Its value is “More than 80%”.

Question: And the “pattern … of majority of T cells” value (CTL clone 68A62, suboptimal (much lower) concentration of the strong agonist peptide, FIG. 6)?
Answer: Its value is “rapid and oscillating pattern of Ca2+ mobilization; also recorded: quick, but oscillating”.

Question: And the “pattern … of majority of T cells” value (CTL clone 68A62, suboptimal (much lower) concentration of the strong agonist peptide, FIG. 6, listed as strong agonist pMHC ligand)?
Answer: Its value is “slow oscillating kinetics of Ca2+ mobilization”.
